As a reminder, the EC50 is the concentration giving half of the maximal effect.

T1 sequence (Q15722 whole entry): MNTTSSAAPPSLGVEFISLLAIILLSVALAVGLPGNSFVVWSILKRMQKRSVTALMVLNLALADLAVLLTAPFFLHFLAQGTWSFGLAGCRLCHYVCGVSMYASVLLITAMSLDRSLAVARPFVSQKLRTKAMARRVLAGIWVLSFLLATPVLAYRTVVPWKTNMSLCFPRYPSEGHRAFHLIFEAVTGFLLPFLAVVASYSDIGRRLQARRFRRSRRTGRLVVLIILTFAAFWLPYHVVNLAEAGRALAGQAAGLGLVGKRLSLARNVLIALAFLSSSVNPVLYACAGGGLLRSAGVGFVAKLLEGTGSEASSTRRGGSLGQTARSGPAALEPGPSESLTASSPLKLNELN

The assay concerns the target T1, human BLT1 receptor (Homo sapiens, UniProt Q15722).
T1 construct: expressed in transfected cells; host or cells: HEK293
Put plainly: BLT-1 cAMP Assay. The class given is cell-based. The conditions noted are these: HEK293 cells recombinantly expressing human BLT1; antagonist activity vs forskolin 4 μM and LTB4 2 nM; cAMP (CisBio kit). As to the method: The ability of compounds to antagonize the human BLT1 receptor was determined using a kit to measure changes in intracellular cyclic AMP levels (cAMP dynamic assay kit, Cisbio Cat. No. 62AM4PEC). […] The cell suspension was centrifuged at 200×g for 10 min and then resuspended in fresh assay medium to a density of 2.5×10^5 cells/mL. […] All subsequent liquid additions were performed using a BIORAPTR (FRD; Beckman Coulter). Next, 5 μL of cell suspension was added and incubated for 20 min. at 37° C. and 5% CO2 in a humidified plastic tray.
The levels of cAMP were detected using the CisBio kit following the manufacturer's instructions: cAMP-d2 vial was reconstituted with distilled water and then diluted accordingly with conjugate & lysis buffer. 5 µL of cAMP-d2 working solution was added to all of the wells of the assay plate. cAMP-Cryptate vial was reconstituted with distilled water and then diluted accordingly with conjugate & lysis buffer. 5 µL of cAMP-Cryptate working solution were added to the assay plate. The assay plate was shaken for 3 minutes and incubated at room temperature for 45 minutes, then read on Perkin Elmer Envision. cAMP standard curve and fit data were plotted using a 4 parameter dose response curve fitting algorithm to fit curve. […] After normalization to treated and untreated controls, the percent effect of signal at each compound concentration was calculated. The plot of percent effect versus the log of compound concentration was fit with a 4-parameter concentration response equation to calculate EC50 values.
As for `O=S(=O)(Nc1ccccc1-c1ccc2c(c1)OC[C@H](Cc1ncco1)[C@H]2O)C(F)(F)F` (racemic) [Example 15, 1,1,1-Trifluoro-N-{2-[(rac-trans)-4-hydroxy-3-(1,3-oxazol-2-ylmethyl)-3,4-dihydro-2H-chromen-7-yl]phenyl}methanesulfonamide], the EC50 is 994 nM.
The same measure for `O=S(=O)(Nc1ccccc1-c1ccc2c(c1)OC[C@H](Cc1ccc(-c3ccccc3)cc1)[C@H]2O)C(F)(F)F` (single isomer, unassigned) [Example 68, N-{2-[(3R,4S or 3S,4R)-3-(biphenyl-4-ylmethyl)-4-hydroxy-3,4-dihydro-2H-chromen-7-yl]phenyl}-1,1,1-trifluoromethanesulfonamide]: 5.3 nM.
The same measure for `O=S(=O)(Nc1ccccc1-c1ccc2c(c1)OC[C@@H](Cc1ccc(-c3ccccc3)cn1)[C@@H]2O)C(F)(F)F` (racemic) [Example 38, 1,1,1-Trifluoro-N-(2-{(rac-trans)-4-hydroxy-3-((5-phenylpyridin-2-yl)methyl)chroman-7-yl)phenyl)methanesulfonamide]: 4 nM.
To `Cn1nccc1CC1COc2cc(-c3ccccc3NS(=O)(=O)C(F)(F)F)ccc2C1O` (racemic) [Example 13, 1,1,1-Trifluoro-N-(2-((3,4-rac-trans)-4-hydroxy-3-((1-methyl-1H-pyrazol-5-yl)methyl)chroman-7-yl)phenyl)methanesulfonamide] belongs 185 nM; to `O=S(=O)(Nc1ccccc1-c1ccc2c(c1)OC[C@@H](Cc1cccs1)[C@@H]2O)C(F)(F)F` (single isomer, unassigned) [Example 61, 1,1,1-trifluoro-N-{2-[(3R,4S or 3S,4R)-4-hydroxy-3-(thiophen-2-ylmethyl)-3,4-dihydro-2H-chromen-7-yl]phenyl}methanesulfonamide], 1340 nM.
For `O=S(=O)(Nc1ccccc1-c1ccc2c(c1)OC[C@@H](Cc1ccccn1)[C@@H]2O)C(F)F` (single isomer, unassigned) [Example 81, 1,1-Difluoro-N-(2-((3R,4S or 3S,4R)-4-hydroxy-3-(pyridin-2-ylmethyl)chroman-7-yl)phenyl)methanesulfonamide], the EC50 came out at 15 nM.
The same measure for `O=S(=O)(CC(F)(F)F)Nc1ccccc1-c1ccc2c(c1)OC[C@@H](Cc1ccccn1)[C@@H]2O` (single isomer, unassigned) [Example 79, 2,2,2-Trifluoro-N-(2-((3R,4S or 3S,4R)-4-hydroxy-3-(pyridin-2-ylmethyl)chroman-7-yl)phenyl)ethanesulfonamide]: 35 nM.
Consider `CC(c1ccccn1)C1COc2cc(-c3cc(F)ccc3NS(=O)(=O)C(F)(F)F)ccc2C1O` (single isomer, unassigned) [Example 100, 1,1,1-trifluoro-N-(4-fluoro-2-(4-hydroxy-3-(1-(pyridin-2-yl)ethyl)chroman-7-yl)phenyl) methanesulfonamide], for which the EC50 was 72 nM.
The same measure for `Cc1cnc(C[C@@H]2COc3cc(-c4ccccc4NS(=O)(=O)C(F)(F)F)ccc3[C@H]2O)s1` (single isomer, unassigned) [Example 52, 1,1,1-trifluoro-N-(2-{(3S,4R or 3R,4S)-4-hydroxy-3-[(5-methyl-1,3-thiazol-2-yl)methyl]-3,4-dihydro-2H-chromen-7-yl}phenyl)methanesulfonamide]: 4040 nM; for `O=S(=O)(Nc1ccccc1-c1ccc2c(c1)OC[C@@H](Cc1cscn1)[C@@H]2O)C(F)(F)F` (racemic) [Example 32, 1,1,1-trifluoro-N-(2-((3,4-rac-trans)-4-hydroxy-3-(thiazol-4-ylmethyl)chroman-7-yl)phenyl)methanesulfonamide]: 17 nM.
To `Cc1cccnc1C[C@H]1COc2cc(-c3ccccc3NS(=O)(=O)C(F)(F)F)ccc2[C@@H]1O` (single isomer, unassigned) [Example 60, 1,1,1-Trifluoro-N-(2-{(3,4-trans)-4-hydroxy-3-[(3-methylpyridin-2-yl)methyl]-3,4-dihydro-2H-chromen-7-yl}phenyl)methanesulfonamide] belongs 269 nM.
